Active and inactive are the calls of the source. No cut-off for these calls is given here.
How the values were obtained:
[1] = tested on: HeLa; experiment: Induction of apoptosis in human HeLa cells assessed as viable cells at 1 uM after 24 hrs by Annexin V/propidium iodide based flow cytometric analysis (reference value: 95.5 %); format: functional; details: read-out: Activity
[2] = tested on: HeLa; experiment: Induction of apoptosis in human HeLa cells assessed as early apoptotic cells at 3 uM after 36 hrs by Annexin V/propidium iodide based flow cytometric analysis (reference value: 1.61 %); format: functional
[3] = tested on: HeLa; experiment: Antiproliferative activity in PGE2-induced human HeLa cells at 2 uM after 12 to 24 hrs by MTT assay; format: functional, cell-based
[4] = cells; details: Homo sapiens, L02, 24 h
Description: Antiproliferative activity against human LO2 cells after 24 hrs by MTT assay

[5] = tested on: HeLa; experiment: Reduction in cell migration in PGE2-induced human HeLa cells at 2 uM by transwell migration assay; format: functional, cell-based
[6] = tested on: HeLa; experiment: Reduction in cell invasion in human HeLa cells up to 4 uM by transwell invasion assay; format: functional, cell-based
[7] = tested on: HeLa; experiment: Induction of apoptosis in human HeLa cells assessed as late apoptotic cells at 2 uM after 24 hrs by Annexin V/propidium iodide based flow cytometric analysis (reference value: 3.16 %); format: functional
[8] = tested on: HeLa; experiment: Induction of apoptosis in human HeLa cells assessed as necrotic cells at 4 uM after 24 hrs by Annexin V/propidium iodide based flow cytometric analysis (reference value: 0.441 %); format: functional
[9] = tested on: HeLa; experiment: Induction of apoptosis in human HeLa cells assessed as viable cells at 3 uM after 36 hrs by Annexin V/propidium iodide based flow cytometric analysis (reference value: 96 %); format: functional; details: read-out: Activity
[10] = tested on: HeLa; experiment: Induction of apoptosis in human HeLa cells assessed as early apoptotic cells at 1 uM after 24 hrs by Annexin V/propidium iodide based flow cytometric analysis (reference value: 0.902 %); format: functional
[11] = tested on: HeLa; experiment: Induction of apoptosis in human HeLa cells assessed as late apoptotic cells at 3 uM after 36 hrs by Annexin V/propidium iodide based flow cytometric analysis (reference value: 2.21 %); format: functional
[12] = tested on: HeLa; experiment: Induction of apoptosis in human HeLa cells assessed as early apoptotic cells at 2 uM after 24 hrs by Annexin V/propidium iodide based flow cytometric analysis (reference value: 0.902 %); format: functional
[13] = tested on: HeLa; experiment: Induction of apoptosis in PGE2-induced human HeLa cells assessed as early apoptotic cells at 3 uM after 24 hrs by Annexin V/propidium iodide based flow cytometric analysis; format: functional, cell-based
[14] = tested on: HeLa; experiment: Induction of apoptosis in human HeLa cells assessed as viable cells at 8 uM after 24 hrs by Annexin V/propidium iodide based flow cytometric analysis (reference value: 95.5 %); format: functional; details: read-out: Activity
[15] = tested on: HeLa; experiment: Induction of apoptosis in human HeLa cells assessed as necrotic cells at 3 uM after 12 hrs by Annexin V/propidium iodide based flow cytometric analysis (reference value: 0.441 %); format: functional
[16] = tested on: HeLa; experiment: Induction of apoptosis in human HeLa cells assessed as viable cells at 3 uM after 12 hrs by Annexin V/propidium iodide based flow cytometric analysis (reference value: 96 %); format: functional; details: read-out: Activity
[17] = tested on: HeLa; experiment: Inhibition of cell adhesion in PGE2-induced human HeLa cells assessed as reduction in cell attachment at 2 uM after 12 hrs by MTT assay; format: functional, cell-based
[18] = tested on: HeLa; experiment: Induction of apoptosis in human HeLa cells assessed as necrotic cells at 3 uM after 36 hrs by Annexin V/propidium iodide based flow cytometric analysis (reference value: 0.207 %); format: functional
[19] = tested on: HeLa; experiment: Reduction in cell invasion in PGE2-induced human HeLa cells at 2 uM by transwell invasion assay; format: functional, cell-based
[20] = tested on: HepG2; experiment: cells; details: Homo sapiens, HepG2, 24 h
Description: Antiproliferative activity against human HepG2 cells after 24 hrs by MTT assay

[21] = cells; details: Homo sapiens, HEK-293T, 24 h
Description: Antiproliferative activity against human 293T cells after 24 hrs by MTT assay

[22] = tested on: HeLa; experiment: Induction of apoptosis in human HeLa cells assessed as late apoptotic cells at 3 uM after 24 hrs by Annexin V/propidium iodide based flow cytometric analysis (reference value: 2.21 %); format: functional
[23] = tested on: HeLa; experiment: Inhibition of cell adhesion in human HeLa cells assessed as reduction in cell attachment at 2 uM after 1 hr by MTT assay; format: functional
[24] = tested on: HeLa; experiment: Induction of apoptosis in human HeLa cells assessed as early apoptotic cells at 3 uM after 12 hrs by Annexin V/propidium iodide based flow cytometric analysis (reference value: 1.61 %); format: functional
[25] = tested on: HeLa; experiment: Inhibition of cell adhesion in human HeLa cells assessed as reduction in cell attachment after 1 hr by MTT assay; format: functional, cell-based
[26] = tested on: HeLa; experiment: Induction of apoptosis in human HeLa cells assessed as viable cells at 4 uM after 24 hrs by Annexin V/propidium iodide based flow cytometric analysis (reference value: 95.5 %); format: functional; details: read-out: Activity
[27] = tested on: HeLa; experiment: Induction of apoptosis in human HeLa cells assessed as late apoptotic cells at 8 uM after 24 hrs by Annexin V/propidium iodide based flow cytometric analysis (reference value: 3.16 %); format: functional
[28] = tested on: HeLa; experiment: Induction of apoptosis in human HeLa cells assessed as viable cells at 2 uM after 24 hrs by Annexin V/propidium iodide based flow cytometric analysis (reference value: 95.5 %); format: functional; details: read-out: Activity
[29] = tested on: HeLa; experiment: Induction of apoptosis in PGE2-induced human HeLa cells assessed as late apoptotic cells at 3 uM after 24 hrs by Annexin V/propidium iodide based flow cytometric analysis; format: functional, cell-based
[30] = tested on: HeLa; experiment: Induction of apoptosis in human HeLa cells assessed as necrotic cells at 3 uM after 24 hrs by Annexin V/propidium iodide based flow cytometric analysis (reference value: 0.207 %); format: functional
[31] = tested on: HeLa; experiment: cells; details: Homo sapiens, 24 h
Description: Antiproliferative activity against human HeLa cells after 24 hrs by MTT assay

[32] = cells; details: Mus musculus, B16-F10, 24 h
Description: Antiproliferative activity against mouse B16F10 cells after 24 hrs by MTT assay

[33] = tested on: HeLa; experiment: Induction of apoptosis in human HeLa cells assessed as early apoptotic cells at 3 uM after 24 hrs by Annexin V/propidium iodide based flow cytometric analysis (reference value: 1.61 %); format: functional
[34] = tested on: HeLa; experiment: Induction of apoptosis in human HeLa cells assessed as necrotic cells at 3 uM after 12 hrs by Annexin V/propidium iodide based flow cytometric analysis (reference value: 0.207 %); format: functional
[35] = tested on: HeLa; experiment: Induction of apoptosis in human HeLa cells assessed as late apoptotic cells at 3 uM after 12 hrs by Annexin V/propidium iodide based flow cytometric analysis (reference value: 2.21 %); format: functional
[36] = tested on: HeLa; experiment: Induction of apoptosis in human HeLa cells assessed as viable cells at 3 uM after 24 hrs by Annexin V/propidium iodide based flow cytometric analysis (reference value: 96 %); format: functional; details: read-out: Activity
[37] = tested on: HeLa; experiment: Induction of apoptosis in human HeLa cells assessed as early apoptotic cells at 8 uM after 24 hrs by Annexin V/propidium iodide based flow cytometric analysis (reference value: 0.902 %); format: functional
[38] = tested on: HeLa; experiment: Induction of apoptosis in human HeLa cells assessed as late apoptotic cells at 4 uM after 24 hrs by Annexin V/propidium iodide based flow cytometric analysis (reference value: 3.16 %); format: functional
[39] = tested on: HeLa; experiment: Inhibition of PGE2 secretion in human HeLa cells at 0.1 uM after 24 hrs by EIA monoclonal assay; format: functional, cell-based
[40] = tested on: A549; experiment: cells; details: Homo sapiens, A549, 24 h
Description: Antiproliferative activity against human A549 cells after 24 hrs by MTT assay

[41] = tested on: HeLa; experiment: Induction of apoptosis in human HeLa cells assessed as late apoptotic cells at 1 uM after 24 hrs by Annexin V/propidium iodide based flow cytometric analysis (reference value: 3.16 %); format: functional
[42] = tested on: HeLa; experiment: Induction of apoptosis in PGE2-induced human HeLa cells assessed as viable cells at 3 uM after 24 hrs by Annexin V/propidium iodide based flow cytometric analysis; format: functional, cell-based
[43] = tested on: HeLa; experiment: Reduction in cell migration in human HeLa cells up to 4 uM by transwell migration assay; format: functional, cell-based
[44] = tested on: HeLa; experiment: Induction of apoptosis in human HeLa cells assessed as necrotic cells at 2 uM after 24 hrs by Annexin V/propidium iodide based flow cytometric analysis (reference value: 0.441 %); format: functional
[45] = target: Prostaglandin G/H synthase 1 (Homo sapiens, UniProt P23219); experiment: Inhibition of human COX1 using arachidonic acid assessed as production of PGF2alpha after 5 mins by ELISA
Prostaglandin G/H synthase 1, sequence (P23219 whole entry): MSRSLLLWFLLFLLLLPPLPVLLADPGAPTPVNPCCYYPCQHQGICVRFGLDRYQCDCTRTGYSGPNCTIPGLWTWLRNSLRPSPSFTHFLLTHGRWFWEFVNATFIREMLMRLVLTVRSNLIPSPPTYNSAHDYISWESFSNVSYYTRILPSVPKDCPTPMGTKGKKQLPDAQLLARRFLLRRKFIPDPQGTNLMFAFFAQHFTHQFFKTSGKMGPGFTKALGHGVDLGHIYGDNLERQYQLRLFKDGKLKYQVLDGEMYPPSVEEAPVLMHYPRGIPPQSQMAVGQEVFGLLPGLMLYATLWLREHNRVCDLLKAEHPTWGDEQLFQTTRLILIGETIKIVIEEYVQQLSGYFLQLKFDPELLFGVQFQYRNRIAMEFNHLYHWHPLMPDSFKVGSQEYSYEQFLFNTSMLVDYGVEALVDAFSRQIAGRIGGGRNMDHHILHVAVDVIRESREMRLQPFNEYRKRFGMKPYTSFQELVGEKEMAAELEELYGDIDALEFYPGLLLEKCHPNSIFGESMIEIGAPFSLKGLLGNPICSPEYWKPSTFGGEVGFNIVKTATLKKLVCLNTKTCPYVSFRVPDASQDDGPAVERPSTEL

[46] = tested on: HeLa; experiment: Induction of apoptosis in human HeLa cells assessed as early apoptotic cells at 4 uM after 24 hrs by Annexin V/propidium iodide based flow cytometric analysis (reference value: 0.902 %); format: functional
[47] = tested on: HeLa; experiment: Induction of apoptosis in human HeLa cells assessed as necrotic cells at 1 uM after 24 hrs by Annexin V/propidium iodide based flow cytometric analysis (reference value: 0.441 %); format: functional
[48] = tested on: HeLa; experiment: Induction of apoptosis in PGE2-induced human HeLa cells assessed as necrotic cells at 3 uM after 24 hrs by Annexin V/propidium iodide based flow cytometric analysis; format: functional, cell-based
[49] = tested on: HeLa; experiment: Induction of apoptosis in human HeLa cells assessed as necrotic cells at 8 uM after 24 hrs by Annexin V/propidium iodide based flow cytometric analysis (reference value: 0.441 %); format: functional

IC50 [20]: 0.85 µM
IC50 [21]: 234 µM
IC50 [31]: 0.36 µM
IC50 [32]: 2.27 µM
IC50 [40]: 2.56 µM
IC50 [45]: 48.2 µM
SMILES: NS(=O)(=O)c1ccc(-n2nc(C(=O)N/N=C/c3c(Cl)c4ccccc4oc3=O)cc2-c2ccc(C(F)(F)F)cc2)cc1
viability at 1 µM [1]: 94%
Activity [2]: 21.6%
Activity [3]: Active
IC50 [4]: 267 µM
Activity [5]: Active
Activity [6]: Active
Activity [7]: 6.29%
Activity [8]: 2.14%
viability at 3 µM [9]: 66.6%
Activity [10]: 2.12%
Activity [11]: 10.2%
Activity [12]: 7.64%
Activity [13]: Active
viability at 8 µM [14]: 49%
Activity [15]: 0.276%
viability at 3 µM [16]: 92.9%
inhibition [17]: Active
Activity [18]: 1.62%
Activity [19]: Active
Activity [22]: 8.83%
inhibition at 2 µM [23]: 60%
Activity [24]: 3.79%
inhibition [25]: Dose-dependent effect
viability at 4 µM [26]: 62%
Activity [27]: 15.6%
viability at 2 µM [28]: 85.9%
Activity [29]: Active
Activity [30]: 0.049%
Activity [33]: 14.8%
Activity [34]: 0.276%
Activity [35]: 3.02%
viability at 3 µM [36]: 76.3%
Activity [37]: 33.6%
Activity [38]: 11%
inhibition [39]: Active
Activity [41]: 3.58%
Activity [42]: Active
Activity [43]: Dose-dependent effect
Activity [44]: 0.143%
Activity [46]: 24.8%
Activity [47]: 0.301%
Activity [48]: Active
Activity [49]: 1.82%

From ChEMBL document CHEMBL3822383, “Coumarin sulfonamides derivatives as potent and selective COX-2 inhibitors with efficacy in suppressing cancer proliferation and metastasis” (Bioorg Med Chem Lett, 2016)
